From patent publication US11241455B2, “Methods of treating disease by metabolic control of T-cell differentiation” (The J. David Gladstone Institutes, a testamentary trust …, priority 2016, dated 2022) come the findings set out here.

Assay [1] relates to differentiating TH17 cells. Kind of assay: 15N-α-glutamine flux analysis (transamination) in differentiating TH17 cells. It is filed as cell-based, mouse. Here is the method: CD4 naïve T cells, differentiating TH17 or iTreg cells (68 hours) were incubated with fresh media prior to labeling. The cells were then cultured for 4 hours at 37° C. with medium where the glutamine was replaced with the corresponding stable isotope label: 2 mM U-^13C glutamine or 2 mM ^15N-α-glutamine for 4 hours at 37° C. The cells were quickly collected and quickly washed with phosphate buffer saline (PBS), pelleted, and snap frozen in liquid nitrogen. The frozen samples were kept in −80° C. until extraction. Cell extracts were prepared by first adding 80/20 MeOH/H2O at −60° C. to the frozen pellets and collecting the supernatant after centrifugation at 4° C. The extracted samples were analyzed by high-resolution liquid-chromatography-mass spectrometry. Unlabeled glutamine-fed cells were used as background.
For amino acid profiling: The ultra-high pressure liquid chromatography (U-HPLC) system consisted of a Thermo Fisher Scientific (San Jose, USA) U-HPLC pumping system, coupled to an autosampler and degasser. Chromatographic separation of the intracellular metabolites was achieved by usage of a reversed phase Atlantis® T3 (3 μm, 2.1 mm ID×150 mm) column (Waters, Eschborn, Germany) and by implementation of a gradient elution program. […]

Assay [2] deals with FOXP3 promoter and its intronic CpG island. The assay is described as follows: Methylation analysis by bisulfite sequencing, T cells under iTreg condition. It is filed as cell-based, mouse. The settings on record: iTreg condition (day 5); 0.5 mM dimethyl R-2-HG or AOA; male mice. Here is the method: The method is essentially the same as described previously (Kim, et al. J Exp Med 204 (7), 1543-1551 (2007)). Briefly, genomic DNA was purified with Blood & Cell Culture DNA Midi Kit (Qiagen). Bisufite conversion of genomic DNA was performed using Epitect® bisulfite kit (Qiagen), according to the manufacture's instruction. The PCR product was run on 2% agarose, purified and cloned using TOPO® TA Cloning® Kit with PCR®4. Clones are picked for Sanger sequencing.

SMILES strings stand for the structures.

Take `NOCC(=O)O` [AOA, (aminooxy)-acetic acid]: the “reduction of total intracellular 15N-α-aspartate” value in assay [1] (differentiating TH17 cells fed 2 mM 15N-α-glutamine for 4 hours) was 90%. Further, in assay [1] (differentiating TH17 cells, 2 mM 15N-α-glutamine for 4 hours), the “de novo synthesis for several amino acids (15N label incorporation)” value was “significant decreases”. In addition, the “methylation level of FOXP3 promoter and its intronic CpG island” value in assay [2] is “dramatically decreased the methylation levels”.
